Tests used:
new onset T1DM NOD mice = assay: Restoration of euglycemia in new onset diabetic NOD mice; assay type: in vivo, mouse; settings: NOD-sp hosts; treatment 28 days
Experimental: We tested the efficacy of a 14- or 28-day course of Power Mix (RPM+IL-2/Fc+mIL-15/Fc) in new onset (>10 days) T1DM NOD mice whose repeated blood glucose levels ranged from 300 to 450 mg/dl. All non-treated diabetic NOD mice remained hyperglycemic without spontaneous remissions (Table 1, group A) and most died within 7 weeks despite insulin treatment (data not shown). In contrast, euglycemia was achieved within 5-7 weeks and maintained throughout a follow up period of over 300 days in 55 of 60 diabetic NOD mice treated with the RPM+IL-2/Fc+mIL-15/Fc regimen (Table 1 groups B and C). By comparison, remissions were less frequent (Table 1, Groups D-F) and delayed if elements of the treatment mix were eliminated.
To determine whether the presence of the T cell regulatory-enriched CD25+ T cell population is crucial to the beneficial therapeutic effects of Power Mix, prior to administration, we treated new onset diabetic NOD mice with an anti-CD25 mAb regimen known to delete CD4+CD25+ T cells (Zheng et al., Adv. Exp. Med. Biol., 520:87-95, 2003; Sanchez-Fueyo et al., Nat. Immunol., 4:1093-1101, 2003). Seven days after the initiation of anti-CD25 mAb treatment, these CD25+ T cell depleted mice received regimen treatment for 28 days (Table 1, Group G). […]
Blood glucose levels of NOD mice were monitored twice weekly with the Accu-Check blood glucose monitor system (Roche, Indianapolis, Ind.). […]

[1] = subcutaneous injection of 25 mg twice a week; cited from earlier work

CO[C@H]1C[C@@H]2CC[C@@H](C)[C@@](O)(O2)C(=O)C(=O)N2CCCC[C@H]2C(=O)O[C@H]([C@H](C)C[C@@H]2CC[C@@H](O)[C@H](OC)C2)CC(=O)[C@H](C)/C=C(\C)[C@@H](O)[C@@H](OC)C(=O)[C@H](C)C[C@H](C)/C=C/C=C/C=C/1C [RPM, rapamycin]
Restored to Normoglycemia (#/total treated) (new onset T1DM NOD mice): 5/19

Etanercept
Time to peak blood levels (average) [1]: 72 h

From patent US20110020269A1, “METHODS AND COMPOSITIONS FOR MODIFYING T CELL IMMUNE RESPONSES AND INFLAMMATION” (Beth Israel Deaconess Medical Center, Inc., priority 2007, published 2011)
